Measurements published in US20210070748A1, “INHIBITORS OF BRUTONS TYROSINE KINASE” (Pharmacyclics LLC, priority 2015, published 2021).

Experiments:
Format in all cases: biochemical
LCK = LCK (Homo sapiens, UniProt P06239); test: Inhibition of a panel of kinases, in vitro HotSpot kinase assay: LCK; conditions: D-compounds panel data; 1 μM ATP; read-out: IC50 LCK
SRC = SRC (Homo sapiens, UniProt P12931); test: Inhibition of a panel of kinases, in vitro HotSpot kinase assay: SRC; conditions: D-compounds panel data; 1 μM ATP
SRC, sequence (P12931 whole entry): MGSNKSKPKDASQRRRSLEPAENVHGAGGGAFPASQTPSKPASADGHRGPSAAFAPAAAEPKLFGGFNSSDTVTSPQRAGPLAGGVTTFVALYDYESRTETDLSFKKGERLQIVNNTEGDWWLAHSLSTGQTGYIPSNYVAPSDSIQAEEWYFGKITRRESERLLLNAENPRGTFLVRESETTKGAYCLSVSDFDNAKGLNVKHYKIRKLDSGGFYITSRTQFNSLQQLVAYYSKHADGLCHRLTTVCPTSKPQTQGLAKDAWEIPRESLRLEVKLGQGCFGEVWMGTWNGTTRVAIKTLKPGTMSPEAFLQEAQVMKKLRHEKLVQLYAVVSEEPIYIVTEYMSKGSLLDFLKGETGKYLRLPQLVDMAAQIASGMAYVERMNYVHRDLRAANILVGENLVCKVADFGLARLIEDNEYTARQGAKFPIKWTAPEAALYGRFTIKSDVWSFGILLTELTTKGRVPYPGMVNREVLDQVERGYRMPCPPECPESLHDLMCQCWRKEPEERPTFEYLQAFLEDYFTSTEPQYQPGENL
Description: (§1) The degree of inhibition of a panel of kinases is determined using the in vitro HotSpot kinase assay (purified enzymes, ^33P-ATP, an appropriate substrate and 1 μM ATP).

TEC = molecular target: T1, TEC (Homo sapiens, UniProt P42680); test: Inhibition of a panel of kinases, in vitro HotSpot kinase assay: TEC; conditions: D-compounds panel data; 1 μM ATP
T1 sequence (P42680 1-631): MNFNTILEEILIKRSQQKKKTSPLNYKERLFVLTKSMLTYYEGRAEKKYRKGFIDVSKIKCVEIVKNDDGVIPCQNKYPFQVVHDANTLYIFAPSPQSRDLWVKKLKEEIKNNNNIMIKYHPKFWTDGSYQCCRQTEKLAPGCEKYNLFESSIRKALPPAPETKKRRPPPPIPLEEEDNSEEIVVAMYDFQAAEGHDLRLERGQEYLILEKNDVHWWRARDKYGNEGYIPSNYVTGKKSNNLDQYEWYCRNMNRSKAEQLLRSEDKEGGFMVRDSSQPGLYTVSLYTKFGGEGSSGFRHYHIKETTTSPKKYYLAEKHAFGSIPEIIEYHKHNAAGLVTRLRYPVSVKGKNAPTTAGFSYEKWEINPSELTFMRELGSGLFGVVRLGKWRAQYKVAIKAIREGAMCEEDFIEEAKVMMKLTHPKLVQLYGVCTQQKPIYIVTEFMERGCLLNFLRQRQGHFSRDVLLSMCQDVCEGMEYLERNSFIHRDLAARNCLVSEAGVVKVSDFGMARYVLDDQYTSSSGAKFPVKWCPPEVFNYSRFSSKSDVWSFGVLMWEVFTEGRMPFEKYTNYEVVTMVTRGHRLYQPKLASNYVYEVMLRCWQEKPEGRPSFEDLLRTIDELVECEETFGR
Description: as §1

EGFR = EGFR (Homo sapiens, UniProt P00533); test: Inhibition of a panel of kinases, in vitro HotSpot kinase assay: EGFR; conditions: D-compounds panel data; 1 μM ATP
EGFR, sequence (P00533 25-1210): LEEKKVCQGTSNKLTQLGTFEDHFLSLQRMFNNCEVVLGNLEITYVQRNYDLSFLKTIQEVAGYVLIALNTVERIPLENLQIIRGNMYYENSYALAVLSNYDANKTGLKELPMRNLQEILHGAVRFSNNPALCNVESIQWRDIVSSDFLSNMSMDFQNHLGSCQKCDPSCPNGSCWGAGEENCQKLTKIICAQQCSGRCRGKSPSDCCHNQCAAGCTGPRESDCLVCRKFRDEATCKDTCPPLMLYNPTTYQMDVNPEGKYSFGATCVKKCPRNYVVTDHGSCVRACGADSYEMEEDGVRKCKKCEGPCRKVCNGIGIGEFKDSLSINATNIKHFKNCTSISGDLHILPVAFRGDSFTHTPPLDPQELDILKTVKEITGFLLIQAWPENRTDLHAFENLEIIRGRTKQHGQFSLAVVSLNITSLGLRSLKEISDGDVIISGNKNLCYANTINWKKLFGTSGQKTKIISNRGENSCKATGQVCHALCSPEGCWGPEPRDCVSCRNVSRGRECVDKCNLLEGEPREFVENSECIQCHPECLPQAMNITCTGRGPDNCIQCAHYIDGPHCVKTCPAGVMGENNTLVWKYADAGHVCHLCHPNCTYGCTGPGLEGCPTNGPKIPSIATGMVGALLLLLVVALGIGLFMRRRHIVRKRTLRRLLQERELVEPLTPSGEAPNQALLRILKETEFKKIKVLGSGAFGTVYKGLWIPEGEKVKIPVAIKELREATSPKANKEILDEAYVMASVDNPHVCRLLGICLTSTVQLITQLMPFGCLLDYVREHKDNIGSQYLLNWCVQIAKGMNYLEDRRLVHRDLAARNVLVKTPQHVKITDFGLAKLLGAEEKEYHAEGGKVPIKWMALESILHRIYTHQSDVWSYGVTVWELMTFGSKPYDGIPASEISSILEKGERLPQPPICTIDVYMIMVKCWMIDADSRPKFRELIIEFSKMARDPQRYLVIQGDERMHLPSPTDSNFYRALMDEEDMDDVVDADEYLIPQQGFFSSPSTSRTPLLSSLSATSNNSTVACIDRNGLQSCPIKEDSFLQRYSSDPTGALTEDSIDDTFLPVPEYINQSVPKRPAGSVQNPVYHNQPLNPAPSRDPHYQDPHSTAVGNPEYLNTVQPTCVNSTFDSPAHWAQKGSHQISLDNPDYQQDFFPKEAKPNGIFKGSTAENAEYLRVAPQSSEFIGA
Description: as §1

ITK = molecular target: T2, ITK (Homo sapiens, UniProt Q08881); test: Inhibition of a panel of kinases, in vitro HotSpot kinase assay: ITK; conditions: D-compounds panel data; 1 μM ATP
T2 sequence (Q08881 1-620): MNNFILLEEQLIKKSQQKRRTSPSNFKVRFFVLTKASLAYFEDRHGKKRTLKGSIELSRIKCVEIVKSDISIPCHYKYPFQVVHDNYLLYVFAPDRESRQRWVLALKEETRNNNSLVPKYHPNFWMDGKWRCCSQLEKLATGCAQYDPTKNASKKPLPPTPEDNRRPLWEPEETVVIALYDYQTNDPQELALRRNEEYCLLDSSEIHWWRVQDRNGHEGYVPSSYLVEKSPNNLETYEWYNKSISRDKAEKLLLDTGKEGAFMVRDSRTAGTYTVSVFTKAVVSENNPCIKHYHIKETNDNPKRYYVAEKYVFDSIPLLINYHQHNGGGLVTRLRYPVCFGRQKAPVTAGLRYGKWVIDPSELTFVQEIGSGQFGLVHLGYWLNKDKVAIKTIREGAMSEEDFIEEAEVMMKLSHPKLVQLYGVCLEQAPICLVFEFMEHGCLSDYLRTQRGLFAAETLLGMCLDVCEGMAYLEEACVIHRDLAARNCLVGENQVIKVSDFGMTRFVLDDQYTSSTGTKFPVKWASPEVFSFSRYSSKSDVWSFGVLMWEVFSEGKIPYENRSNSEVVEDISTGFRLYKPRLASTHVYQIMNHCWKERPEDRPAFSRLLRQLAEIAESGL
Description: as §1

JAK3 = molecular target: T3, JAK3 (Homo sapiens, UniProt P52333); test: Inhibition of a panel of kinases, in vitro HotSpot kinase assay: JAK3; conditions: D-compounds panel data; 1 μM ATP; read-out: IC50 JAK3
T3 sequence (P52333 1-1124): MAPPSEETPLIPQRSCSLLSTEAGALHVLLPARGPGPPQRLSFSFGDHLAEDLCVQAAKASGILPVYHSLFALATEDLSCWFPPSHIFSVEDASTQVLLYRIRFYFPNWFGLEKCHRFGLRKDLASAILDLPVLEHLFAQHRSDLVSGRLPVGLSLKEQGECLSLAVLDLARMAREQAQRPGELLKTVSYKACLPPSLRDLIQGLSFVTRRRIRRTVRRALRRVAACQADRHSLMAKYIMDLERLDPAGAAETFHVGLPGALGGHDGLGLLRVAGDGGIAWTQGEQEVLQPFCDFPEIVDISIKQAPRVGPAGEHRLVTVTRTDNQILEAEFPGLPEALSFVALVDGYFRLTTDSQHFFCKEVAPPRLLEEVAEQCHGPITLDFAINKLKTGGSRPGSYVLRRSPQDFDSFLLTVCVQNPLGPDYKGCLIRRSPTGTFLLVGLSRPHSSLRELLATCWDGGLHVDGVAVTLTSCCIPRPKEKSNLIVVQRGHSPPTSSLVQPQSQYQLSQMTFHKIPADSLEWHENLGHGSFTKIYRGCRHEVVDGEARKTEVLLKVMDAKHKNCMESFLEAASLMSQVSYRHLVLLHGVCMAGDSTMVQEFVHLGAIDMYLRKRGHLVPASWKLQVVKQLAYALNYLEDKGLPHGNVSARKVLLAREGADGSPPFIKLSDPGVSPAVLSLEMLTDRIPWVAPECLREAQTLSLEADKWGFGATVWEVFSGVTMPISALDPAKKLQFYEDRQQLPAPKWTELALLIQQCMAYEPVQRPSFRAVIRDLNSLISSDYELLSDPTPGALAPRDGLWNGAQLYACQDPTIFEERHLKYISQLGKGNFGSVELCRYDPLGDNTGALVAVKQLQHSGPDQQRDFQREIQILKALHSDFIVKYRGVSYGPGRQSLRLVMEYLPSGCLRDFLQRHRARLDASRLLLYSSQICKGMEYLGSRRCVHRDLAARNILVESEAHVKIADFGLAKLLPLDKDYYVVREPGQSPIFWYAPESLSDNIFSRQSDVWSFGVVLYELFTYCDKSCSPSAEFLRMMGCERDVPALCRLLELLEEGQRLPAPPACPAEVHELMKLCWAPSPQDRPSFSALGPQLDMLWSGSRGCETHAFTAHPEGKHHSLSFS

LCK, sequence (P06239 whole entry): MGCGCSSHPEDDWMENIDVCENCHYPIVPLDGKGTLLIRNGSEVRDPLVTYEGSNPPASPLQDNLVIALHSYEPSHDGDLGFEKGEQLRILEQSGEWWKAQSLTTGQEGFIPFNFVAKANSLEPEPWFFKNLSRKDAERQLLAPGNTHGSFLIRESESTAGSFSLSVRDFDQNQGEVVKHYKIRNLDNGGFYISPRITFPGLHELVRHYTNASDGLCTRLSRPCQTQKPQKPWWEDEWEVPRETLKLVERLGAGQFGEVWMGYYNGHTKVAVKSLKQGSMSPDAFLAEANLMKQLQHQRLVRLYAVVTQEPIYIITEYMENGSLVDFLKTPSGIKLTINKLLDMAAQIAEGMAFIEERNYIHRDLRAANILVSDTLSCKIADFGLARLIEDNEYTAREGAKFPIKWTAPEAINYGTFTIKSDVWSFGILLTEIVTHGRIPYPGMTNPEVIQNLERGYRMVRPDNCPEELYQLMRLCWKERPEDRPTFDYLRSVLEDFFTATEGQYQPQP

| Compound | IC50 (LCK) | IC50 (SRC) | IC50 (TEC) | IC50 (EGFR) | IC50 (ITK) | IC50 (JAK3) |
| --- | --- | --- | --- | --- | --- | --- |
| C[C@@H]1[C@H](NC(=O)c2ccc(C3CC3)c(Cl)c2)CCCN1c1cnc(C(N)=O)c(Nc2ccc(N3CCN(C)CC3)cc2)n1 [Example D-17, 5-[(2R,3R)-3-(3-chloro-4-cyclopropylbenzamido)-2-methylpiperidin-1-yl]-3-{[4-(4-methylpiperazin-1-yl)phenyl]amino}pyrazine-2-carboxamide] | 100 to 1000 nM | 100 to 1000 nM | 100 to 1000 nM | 1000 to 10000 nM | 100 to 1000 nM | 1000 to 10000 nM |
| C[C@@H]1[C@H](NC(=O)c2ccc(C3CC3)nc2)CCCN1c1cnc(C(N)=O)c(Nc2cnn(C)c2)n1 [Example D-18, 5-[(2R,3R)-3-(6-cyclopropylpyridine-3-amido)-2-methylpiperidin-1-yl]-3-[(1-methyl-1H-pyrazol-4-yl)amino]pyrazine-2-carboxamide] | 100 to 1000 nM | 10 to 100 nM | 10 to 100 nM | 1000 to 10000 nM | 100 to 1000 nM | 1000 to 10000 nM |
| CN1CCN(C(=O)c2ccc(Nc3nc(N4CCC[C@@H](n5ccc6cc(C7CC7)ccc6c5=O)C4)cnc3C(N)=O)cc2)CC1 [Example D-169, 5-[(3R)-3-(6-cyclopropyl-1-oxo-1,2-dihydroisoquinolin-2-yl)piperidin-1-yl]-3-{[4-(4-methylpiperazine-1-carbonyl)phenyl]amino}pyrazine-2-carboxamide] | 100 to 1000 nM | 100 to 1000 nM | 10 to 100 nM | 100 to 1000 nM | 100 to 1000 nM | 100 to 1000 nM |
| C/C=C/c1ccc(C(=O)N[C@@H]2CCCN(c3cnc(C(N)=O)c(Nc4cc(C)ns4)c3)[C@@H]2C)c(F)c1 [Example D-170, 5-[(2R,3R)-3-{2-fluoro-4-[(1E)-prop-1-en-1-yl]benzamido}-2-methylpiperidin-1-yl]-3-[(3-methyl-1,2-thiazol-5-yl)amino]pyridine-2-carboxamide] | 10 to 100 nM | 100 to 1000 nM | 100 to 1000 nM | 100 to 1000 nM | > 10000 nM | 1000 to 10000 nM |
| Cc1cc(Nc2nc(N3CCC[C@@H](c4ncc(-c5ccccc5)[nH]4)C3)cnc2C(N)=O)sn1 [Example D-171, 3-[(3-methyl-1,2-thiazol-5-yl)amino]-5-[(3R)-3-(5-phenyl-1H-imidazol-2-yl)piperidin-1-yl]pyrazine-2-carboxamide] | 100 to 1000 nM | 100 to 1000 nM | 100 to 1000 nM | > 10000 nM | > 10000 nM | 100 to 1000 nM |
| Cc1cc(Nc2nc(N3CCC[C@H](c4ncc(-c5ccccc5)[nH]4)C3)cnc2C(N)=O)sn1 [Example D-172, 3-[(3-methyl-1,2-thiazol-5-yl)amino]-5-[(3S)-3-(5-phenyl-1H-imidazol-2-yl)piperidin-1-yl]pyrazine-2-carboxamide] | 100 to 1000 nM | 100 to 1000 nM | 100 to 1000 nM | 10 to 100 nM | > 10000 nM | 100 to 1000 nM |
| C[C@@H]1[C@H](NC(=O)c2ccc(C3CC3)cc2F)CCCN1c1cnc(C(N)=O)c(Nc2cc(CN3CCOCC3)ns2)n1 [Example D-173, 5-[(2R,3R)-3-(4-cyclopropyl-2-fluorobenzamido)-2-methylpiperidin-1-yl]-3-{[3-(morpholin-4-ylmethyl)-1,2-thiazol-5-yl]amino}pyrazine-2-carboxamide] | 10 to 100 nM | 10 to 100 nM | 10 to 100 nM | 100 to 1000 nM | 100 to 1000 nM | 100 to 1000 nM |
| CN1CCN(c2ccc(Nc3nc(N4CCC[C@@H](n5ccc6cc(C7CC7)cc(F)c6c5=O)C4)cnc3C(N)=O)cc2)CC1 [Example D-174, 5-[(3R)-3-(6-cyclopropyl-8-fluoro-1-oxo-1,2-dihydroisoquinolin-2-yl)piperidin-1-yl]-3-{[4-(4-methylpiperazin-1-yl)phenyl]amino}pyrazine-2-carboxamide] | 100 to 1000 nM | 10 to 100 nM | 10 to 100 nM | 100 to 1000 nM | 100 to 1000 nM | 100 to 1000 nM |
| Cc1cc(Nc2cc(N3CCC[C@@H](NC(=O)N(C)C)[C@H]3C)cnc2C(N)=O)sn1 [Example D-175, 5-[(2R,3R)-3-[(dimethylcarbamoyl)amino]-2-methylpiperidin-1-yl]-3-[(3-methyl-1,2-thiazol-5-yl)amino]pyridine-2-carboxamide] | 1000 to 10000 nM | 100 to 1000 nM | 1000 to 10000 nM | 1000 to 10000 nM | 1000 to 10000 nM | 1000 to 10000 nM |
| C[C@@H]1[C@H](NC(=O)c2ccc(C3CC3)cc2F)CCCN1c1cnc(C(N)=O)c(Nc2cc(CN3CCCCC3)ns2)n1 [Example D-176, 5-[(2R,3R)-3-(4-cyclopropyl-2-fluorobenzamido)-2-methylpiperidin-1-yl]-3-{[3-(piperidin-1-ylmethyl)-1,2-thiazol-5-yl]amino}pyrazine-2-carboxamide] | 10 to 100 nM | 10 to 100 nM | 10 to 100 nM | > 10000 nM | 100 to 1000 nM | 100 to 1000 nM |
| CC1(c2ccc(Nc3nc(N4CCC[C@@H](n5ccc6cc(C7CC7)ccc6c5=O)C4)cnc3C(N)=O)cc2)CCN(C2CCCC2)CC1 [Example D-177, 3-{[4-(1-cyclopentyl-4-methylpiperidin-4-yl)phenyl]amino}-5-[(3R)-3-(6-cyclopropyl-1-oxo-1,2-dihydroisoquinolin-2-yl)piperidin-1-yl]pyrazine-2-carboxamide] | 10 to 100 nM | 10 to 100 nM | ≤ 10 nM | 100 to 1000 nM | 10 to 100 nM | 100 to 1000 nM |
| CN1CCN(c2ccc(Nc3cc(N4CCC[C@@H](n5ccc6cc(C7CC7)ccc6c5=O)C4)cnc3C(N)=O)cc2)CC1 [Example D-178, 5-[(3R)-3-(6-cyclopropyl-1-oxo-1,2-dihydroisoquinolin-2-yl)piperidin-1-yl]-3-{[4-(4-methylpiperazin-1-yl)phenyl]amino}pyridine-2-carboxamide] | 1000 to 10000 nM | 1000 to 10000 nM | 1000 to 10000 nM | > 10000 nM | 1000 to 10000 nM | > 10000 nM |
